The values below come from PMC6586010 (Journal of Clinical Pharmacology, 2018).

Like-named read-outs stand apart in the source and are kept apart here.

Series [1] relates to CYP3A5. The settings on record: human liver microsomes of CYP3A5*1/*1 (EM) donors; cited from earlier work.
The format of series [2] is in vivo, human. The conditions noted are these: part 1.
In series [3] the test system is HIV‐1. Kind of series: Study 1. The format is in vivo. The settings on record: for subjects who discontinued the study because of lack of efficacy: through week 96, maraviroc.
For series [4], the system named is HIV‐1. The conditions noted are these: 48 weeks, cited from earlier work.
Series [5] concerns HIV‐1. The conditions noted are these: study 1; cited from earlier work.
Series [6] concerns HIV. The conditions noted are these: viral inhibition; cited from earlier work.
Setting [7] is: week 48, efavirenz 600 mg once daily + zidovudine/lamivudine, EMs (2 CYP3A5*1 alleles).
Setting [8] is: week 48, efavirenz 600 mg once daily + zidovudine/lamivudine, IMs (1 CYP3A5*1 allele).
Setting [9] is: week 48, efavirenz 600 mg once daily + zidovudine/lamivudine, PMs (no CYP3A5*1 alleles).
The mark [10] stands for this setting: week 48, efavirenz 600 mg once daily + zidovudine/lamivudine, overall.
[11] abbreviates: week 96, efavirenz 600 mg once daily + zidovudine/lamivudine, EMs (2 CYP3A5*1 alleles).
[12] abbreviates: week 96, efavirenz 600 mg once daily + zidovudine/lamivudine, IMs (1 CYP3A5*1 allele).
[13] abbreviates: week 96, efavirenz 600 mg once daily + zidovudine/lamivudine, PMs (no CYP3A5*1 alleles).
Setting [14] is: week 96, efavirenz 600 mg once daily + zidovudine/lamivudine, overall.
[15] abbreviates: week 48, maraviroc 300 mg twice daily + zidovudine/lamivudine, EMs (2 CYP3A5*1 alleles).
[16] abbreviates: week 48, maraviroc 300 mg twice daily + zidovudine/lamivudine, IMs (1 CYP3A5*1 allele).
Where [17] appears, read: week 48, maraviroc 300 mg twice daily + zidovudine/lamivudine, PMs (no CYP3A5*1 alleles).
[18] abbreviates: week 48, maraviroc 300 mg twice daily + zidovudine/lamivudine, overall.
Setting [19] is: week 96, maraviroc 300 mg twice daily + zidovudine/lamivudine, EMs (2 CYP3A5*1 alleles).
The mark [20] stands for this setting: week 96, maraviroc 300 mg twice daily + zidovudine/lamivudine, IMs (1 CYP3A5*1 allele).
Setting [21] is: week 96, maraviroc 300 mg twice daily + zidovudine/lamivudine, PMs (no CYP3A5*1 alleles).
[22] abbreviates: week 96, maraviroc 300 mg twice daily + zidovudine/lamivudine, overall.

“(1R,2R)‐2‐hydroxymaraviroc [(1R,2R)-2-hydroxymaraviroc]”: in series [1], the “CYP3A5 contribution to the formation of this metabolite” value (from here on “CYP3A5 contribution to the formation”) was “minimal”. In addition, the “mean MRAUC12 among black IMs and PMs and white PMs” value in series [2] is “comparable”.

Take `O=C1Nc2ccc(Cl)cc2[C@@](C#CC2CC2)(C(F)(F)F)O1` [Efavirenz]: the “Proportion of subjects with HIV-1 RNA <50 copies/mL” value in series [3] (setting [7]) was 19/30 (63.3) %; in series [3] (setting [8]), 68/96 (70.8) %; in series [3] (setting [9]), 113/164 (68.9) %; in series [3] (setting [10]), 200/290 (69.0) %; in series [3] (setting [11]) it was 17/30 (56.7) %; in series [3] (setting [12]), 62/96 (64.6) %. Further, the “Proportion of subjects with HIV-1 RNA <50 copies/mL” value in series [3] (setting [13]) was 104/164 (63.4) %; in series [3] (setting [14]), 183/290 (63.1) %. The “Proportion of subjects with HIV-1 RNA <400 copies/mL” value in series [3] (setting [7]) is on record as 20/30 (66.7) %; in series [3] (setting [8]) it was 71/96 (74.0) %; in series [3] (setting [9]), 119/164 (72.6) %; in series [3] (setting [10]), 210/290 (72.4) %; in series [3] (setting [11]), 17/30 (56.7) %; in series [3] (setting [12]), 63/96 (65.6) %. Besides, the figures for the “Proportion of subjects with HIV-1 RNA <400 copies/mL” value in series [3] (setting [13]) and in series [3] (setting [14]) were 107/164 (65.2) % and 187/290 (64.5) %, respectively.

In the case of “(1S,3S)‐3‐hydroxymaraviroc [(1S,3S)-3-hydroxymaraviroc]”, in series [1], the “CYP3A5 contribution to the formation” value was “minimal”. The “mean MRAUC12 across all cohorts” value in series [2] is listed as “comparable”.

`CC(C)c1nnc(CO)n1C1C[C@H]2CC[C@@H](C1)N2CC[C@H](NC(=O)C1CCC(F)(F)CC1)c1ccccc1` (some centres unmarked) [hydroxymethylmaraviroc]: the “CYP3A5 contribution to the formation” value in series [1] was 1%.

In the case of `Cc1nnc(C(C)C)n1C1C[C@H]2CC[C@@H](C1)N2CC[C@H](NC(=O)[C@H]1CCC(F)(F)[C@H](O)C1)c1ccccc1` (stereo partly drawn) [(1S,3R)-3-hydroxymaraviroc, (1S,3R)‐3‐hydroxymaraviroc], the “CYP3A5 contribution to the formation” value in series [1] is on record as “minimal”. Besides, the “mean MRAUC12 across all cohorts” value in series [2] is “comparable”.

Maraviroc: the “blacks with viral load <50 copies/mL” value in series [4] (once-daily maraviroc group) is listed as 28%; in series [4] (twice-daily maraviroc group) it was 26%. The “Cavg associated with near-maximal virologic efficacy” value in series [5] is 75 ng/mL. Also, in series [6], the “in vivo concentration for 50% inhibition” value is recorded as roughly 8 ng/mL. Also, the “subjects who discontinued the study because of lack of efficacy” value in series [3] (EMs (4/43)) is on record as 9.3%; in series [3] (IMs (8/85)), 9.4%; in series [3] (PMs (25/175)) it was 14.3%. The “Proportion of subjects with HIV-1 RNA <50 copies/mL” value in series [3] (setting [15]) is given as 30/43 (69.8) %; in series [3] (setting [16]), 53/85 (62.4) %; in series [3] (setting [17]), 126/175 (72.0) %; in series [3] (setting [18]) it was 209/303 (69.0) %; in series [3] (setting [19]), 23/43 (53.5) %; in series [3] (setting [20]), 47/85 (55.3) %. For the same compound, the “Proportion of subjects with HIV-1 RNA <50 copies/mL” value is listed as 109/175 (62.3) % in series [3] (setting [21]) and 179/303 (59.1) % in series [3] (setting [22]). Moreover, the “Proportion of subjects with HIV-1 RNA <400 copies/mL” value in series [3] (setting [15]) is given as 32/43 (74.4) %; in series [3] (setting [16]) it was 61/85 (71.8) %; in series [3] (setting [17]), 132/175 (75.4) %; in series [3] (setting [18]), 225/303 (74.3) %; in series [3] (setting [19]), 26/43 (60.5) %; in series [3] (setting [20]), 52/85 (61.2) %. In addition, the “Proportion of subjects with HIV-1 RNA <400 copies/mL” value in series [3] (setting [21]) is recorded as 117/175 (66.9) %; in series [3] (setting [22]) it was 195/303 (64.4) %. Besides, the “proportions of subjects with HIV-1 RNA <50 and <400 copies/mL among all 3 CYP3A5 genotypes” value in series [3] (weeks 48 and 96) is “comparable”.
